Test results: the supplement of paper PMC10307832

What was measured:
Assay in all cases: relative viability (nuclei count vs DMSO), 5 days (fraction); higher = more cells survive
A-427 = system: A-427
In short: (§1)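 Lung cancer cell lines in 1536-well plates were dosed by pin tool the day after seeding, either with one drug alone or with a fixed anchor-drug dose plus five library-drug doses (not always all listed) in √10 steps. After 5 days, cells were fixed and their nuclei stained in one step (final 0.05% Triton X-100, 1% formaldehyde, 1 ug/ml Hoechst), then counted on 4× images. Relative viability is the nuclei count in treated wells divided by that in vehicle wells. Values are medians of duplicate plates.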

NCI-H1650 = system: NCI-H1650
In short: as §1

NCI-H596 = system: NCI-H596
In short: as §1

NCI-H2085 = system: NCI-H2085
In short: as §1

NCI-H520 = system: NCI-H520
In short: as §1

SW 1573 = system: SW 1573
In short: as §1

H3255 = system: H3255
In short: as §1

NCI-H460 = system: NCI-H460
In short: as §1

NCI-H1755 = system: NCI-H1755
In short: as §1

NCI-H2228 = system: NCI-H2228
In short: as §1

NCI-H1355 = system: NCI-H1355
In short: as §1

EKVX = system: EKVX
In short: as §1

NCI-H838 = system: NCI-H838
In short: as §1

LK-2 = system: LK-2
In short: as §1

NCI-H322M = system: NCI-H322M
In short: as §1

NCI-H650 = system: NCI-H650
In short: as §1

NCI-H1944 = system: NCI-H1944
In short: as §1

NCI-H441 = system: NCI-H441
In short: as §1

ChaGo-K-1 = system: ChaGo-K-1
In short: as §1

NCI-H1666 = system: NCI-H1666
In short: as §1

NCI-H358 = system: NCI-H358
In short: as §1

NCI-H3122 = system: NCI-H3122
In short: as §1

NCI-H2347 = system: NCI-H2347
In short: as §1

`O=c1[nH]c2ccccc2n1C1CCN(CCCC(c2ccc(F)cc2)c2ccc(F)cc2)CC1` [Pimozide] + C[C@@H](Oc1cc(-c2cnn(C3CCNCC3)c2)cnc1N)c1c(Cl)ccc(F)c1Cl [Crizotinib] (partner 1 µM) was tested, and the relative viability (A-427; first compound 0.08 µM) was 0.802, the relative viability (A-427; first compound 0.253 µM) was 0.839 and the relative viability (A-427; first compound 0.8 µM) was 0.896. For the same molecule, the relative viability (A-427; first compound 2.53 µM) was 0.845, the relative viability (A-427; first compound 8 µM) was 0.878 and the relative viability (NCI-H1650; first compound 0.08 µM) was 0.923. It also gave a relative viability (NCI-H1650; first compound 0.253 µM) of 0.946, a relative viability (NCI-H1650; first compound 0.8 µM) of 0.791 and a relative viability (NCI-H1650; first compound 2.53 µM) of 0.891. The relative viability (NCI-H1650; first compound 8 µM) was 0.835, the relative viability (NCI-H596; first compound 0.08 µM) was 0.943 and the relative viability (NCI-H596; first compound 0.253 µM) was 1.05. For the same molecule, the relative viability (NCI-H596; first compound 0.8 µM) was 0.928, the relative viability (NCI-H596; first compound 2.53 µM) was 0.911 and the relative viability (NCI-H596; first compound 8 µM) was 0.831. For the same molecule, the relative viability (NCI-H2085; first compound 0.08 µM) was 0.897, the relative viability (NCI-H2085; first compound 0.253 µM) was 0.792 and the relative viability (NCI-H2085; first compound 0.8 µM) was 0.772. For the same molecule, the relative viability (NCI-H2085; first compound 2.53 µM) was 0.712, the relative viability (NCI-H2085; first compound 8 µM) was 0.775 and the relative viability (NCI-H520; first compound 0.08 µM) was 0.817. The relative viability (NCI-H520; first compound 0.253 µM) was 0.802, the relative viability (NCI-H520; first compound 0.8 µM) was 0.702 and the relative viability (NCI-H520; first compound 2.53 µM) was 0.819. For the same molecule, the relative viability (NCI-H520; first compound 8 µM) was 0.675, the relative viability (SW 1573; first compound 0.08 µM) was 0.797 and the relative viability (SW 1573; first compound 0.253 µM) was 0.759. It also gave a relative viability (SW 1573; first compound 0.8 µM) of 0.803, a relative viability (SW 1573; first compound 2.53 µM) of 0.805 and a relative viability (SW 1573; first compound 8 µM) of 0.779. For the same molecule, the relative viability (H3255; first compound 0.253 µM) was 0.801, the relative viability (H3255; first compound 0.8 µM) was 0.764 and the relative viability (H3255; first compound 2.53 µM) was 0.983. The relative viability (H3255; first compound 8 µM) was 0.875, the relative viability (NCI-H460; first compound 0.08 µM) was 0.841 and the relative viability (NCI-H460; first compound 0.253 µM) was 0.671. It also gave a relative viability (NCI-H460; first compound 0.8 µM) of 0.899, a relative viability (NCI-H460; first compound 2.53 µM) of 0.871 and a relative viability (NCI-H460; first compound 8 µM) of 0.89. It also gave a relative viability (NCI-H1755; first compound 0.08 µM) of 0.881, a relative viability (NCI-H1755; first compound 0.253 µM) of 0.845 and a relative viability (NCI-H1755; first compound 0.8 µM) of 0.794. For the same molecule, the relative viability (NCI-H1755; first compound 2.53 µM) was 0.792, the relative viability (NCI-H1755; first compound 8 µM) was 0.697 and the relative viability (NCI-H2228; first compound 0.08 µM) was 0.406. For the same molecule, the relative viability (NCI-H2228; first compound 0.253 µM) was 0.572, the relative viability (NCI-H2228; first compound 0.8 µM) was 0.406 and the relative viability (NCI-H2228; first compound 2.53 µM) was 0.38. The relative viability (NCI-H2228; first compound 8 µM) was 0.354, the relative viability (NCI-H1355; first compound 0.08 µM) was 1.08 and the relative viability (NCI-H1355; first compound 0.253 µM) was 0.988. For the same molecule, the relative viability (NCI-H1355; first compound 0.8 µM) was 0.959, the relative viability (NCI-H1355; first compound 2.53 µM) was 0.937 and the relative viability (NCI-H1355; first compound 8 µM) was 1.06. It also gave a relative viability (EKVX; first compound 0.253 µM) of 0.949, a relative viability (EKVX; first compound 0.8 µM) of 0.895 and a relative viability (EKVX; first compound 2.53 µM) of 0.865. For the same molecule, the relative viability (EKVX; first compound 8 µM) was 0.876, the relative viability (NCI-H838; first compound 0.08 µM) was 0.855 and the relative viability (NCI-H838; first compound 0.253 µM) was 0.808. For the same molecule, the relative viability (NCI-H838; first compound 0.8 µM) was 0.786, the relative viability (NCI-H838; first compound 2.53 µM) was 0.774 and the relative viability (NCI-H838; first compound 8 µM) was 0.955. It also gave a relative viability (LK-2; first compound 0.08 µM) of 0.225, a relative viability (LK-2; first compound 0.253 µM) of 0.224 and a relative viability (LK-2; first compound 0.8 µM) of 0.243. The relative viability (LK-2; first compound 2.53 µM) was 0.225, the relative viability (LK-2; first compound 8 µM) was 0.234 and the relative viability (NCI-H322M; first compound 0.253 µM) was 0.805. The relative viability (NCI-H322M; first compound 0.8 µM) was 0.846, the relative viability (NCI-H322M; first compound 2.53 µM) was 0.832 and the relative viability (NCI-H322M; first compound 8 µM) was 0.943. The relative viability (NCI-H650; first compound 0.08 µM) was 0.707, the relative viability (NCI-H650; first compound 0.253 µM) was 0.711 and the relative viability (NCI-H650; first compound 0.8 µM) was 0.74. The relative viability (NCI-H650; first compound 2.53 µM) was 0.633, the relative viability (NCI-H650; first compound 8 µM) was 0.802 and the relative viability (NCI-H1944; first compound 0.08 µM) was 0.992. The relative viability (NCI-H1944; first compound 0.253 µM) was 1.03, the relative viability (NCI-H1944; first compound 0.8 µM) was 1.05 and the relative viability (NCI-H1944; first compound 2.53 µM) was 0.967. It also gave a relative viability (NCI-H1944; first compound 8 µM) of 0.939, a relative viability (NCI-H441; first compound 0.08 µM) of 0.608 and a relative viability (NCI-H441; first compound 0.253 µM) of 0.646. It also gave a relative viability (NCI-H441; first compound 0.8 µM) of 0.652, a relative viability (NCI-H441; first compound 2.53 µM) of 0.568 and a relative viability (NCI-H441; first compound 8 µM) of 0.693. It also gave a relative viability (ChaGo-K-1; first compound 0.08 µM) of 1.18, a relative viability (ChaGo-K-1; first compound 0.253 µM) of 1.04 and a relative viability (ChaGo-K-1; first compound 0.8 µM) of 1.15. For the same molecule, the relative viability (ChaGo-K-1; first compound 2.53 µM) was 1.02, the relative viability (ChaGo-K-1; first compound 8 µM) was 0.944 and the relative viability (NCI-H1666; first compound 0.08 µM) was 0.882. The relative viability (NCI-H1666; first compound 0.253 µM) was 0.913, the relative viability (NCI-H1666; first compound 0.8 µM) was 1.02 and the relative viability (NCI-H1666; first compound 2.53 µM) was 0.751. It also gave a relative viability (NCI-H1666; first compound 8 µM) of 0.789, a relative viability (NCI-H358; first compound 0.08 µM) of 0.573 and a relative viability (NCI-H358; first compound 0.253 µM) of 0.519. The relative viability (NCI-H358; first compound 0.8 µM) was 0.448, the relative viability (NCI-H358; first compound 2.53 µM) was 0.335 and the relative viability (NCI-H358; first compound 8 µM) was 0.546. It also gave a relative viability (NCI-H3122; first compound 0.08 µM) of 0.27, a relative viability (NCI-H3122; first compound 0.253 µM) of 0.28 and a relative viability (NCI-H3122; first compound 0.8 µM) of 0.275. It also gave a relative viability (NCI-H3122; first compound 2.53 µM) of 0.301, a relative viability (NCI-H3122; first compound 8 µM) of 0.279 and a relative viability (NCI-H2347; first compound 0.08 µM) of 0.807. It also gave a relative viability (NCI-H2347; first compound 0.253 µM) of 0.661, a relative viability (NCI-H2347; first compound 0.8 µM) of 0.545 and a relative viability (NCI-H2347; first compound 2.53 µM) of 0.517. It also gave a relative viability (NCI-H2347; first compound 8 µM) of 0.51.
